From patent US10881698B2, “Diagnosis and treatment for respiratory tract diseases” (THE TRUSTEES OF THE UNIVERSITY OF PENNSYLVANIA, priority 2012, dated 2021)
Positions count from the first letter of the chain named. Values joined by “and” are separate entries in the source; they are usually repeats but may differ in a detail not shown here. Equal entries are not always repeated. Where two headings read alike, the source gives them in different places. Blank lines part the entries; values can stand above or below the compound they belong to.

Experiments:
[1] = system: Methicillin-resistant Staphylococcus aureus (MRSA); experiment: Kill assay with ASL from stimulated sinonasal ALI cultures (CFU plating); assay type: cell-based; details: for Growth of bacteria mixed with ASL from stimulated cultures: 10 mM denatonium, 300 μM absinthin; for Effect of solutions alone on growth: no ASL
Pseudomonas aeruginosa [2] = experiment: as above; assay type: cell-based; details: for Growth of bacteria mixed with ASL from stimulated cultures: 10 mM denatonium, 300 μM absinthin, Pseudomonas aeruginosa; for Effect of solutions alone on growth: no ASL, Pseudomonas
AVI-TAS2R38 = target: T1, AVI-TAS2R38 (Homo sapiens, UniProt P59533, A262V); experiment: Fluo-4 calcium mobilization in HEK293 cells expressing hTAS2R38 (AVI) and Gα16gustducin44; assay type: cell-based; details: AVI variant
T1 construct: first 45 amino acids of rat SSTR-3 (N); host or cells: HEK293 (peakRapid), transient transfection, pcDNA3.1(+)
T1 sequence (P59533 1-333 A262V): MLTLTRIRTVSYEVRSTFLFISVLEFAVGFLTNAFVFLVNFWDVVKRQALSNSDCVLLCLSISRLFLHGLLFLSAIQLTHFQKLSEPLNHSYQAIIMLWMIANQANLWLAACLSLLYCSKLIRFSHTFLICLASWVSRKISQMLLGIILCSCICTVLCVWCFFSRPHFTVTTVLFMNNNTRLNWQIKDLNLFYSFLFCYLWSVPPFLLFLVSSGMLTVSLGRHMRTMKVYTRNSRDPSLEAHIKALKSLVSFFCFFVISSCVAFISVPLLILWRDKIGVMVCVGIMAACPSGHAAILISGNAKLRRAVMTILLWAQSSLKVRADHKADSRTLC

PAV-TAS2R38 = target: T2, PAV-TAS2R38 (Homo sapiens, UniProt P59533, A49P/I296V); experiment: Fluo-4 calcium mobilization in HEK293 cells expressing hTAS2R38 (PAV) and Gα16gustducin44; assay type: cell-based; details: PAV variant
T2 construct: first 45 amino acids of rat SSTR-3 (N); host or cells: HEK293 (peakRapid), transient transfection, pcDNA3.1(+)
T2 sequence (P59533 1-333 A49P/I296V): T1 sequence (P59533 1-333 A262V) with A49P, V262A, I296V

Kleibsiella pneumoniae = experiment: Bactericidal effect of ASL from treated nasal cultures; assay type: cell-based; details: 10 mM denatonium or 300 μM absinthin
nasal epithelial cells = experiment: Fluo-4 calcium signaling with denatonium in nasal epithelial cells (sinonasal ALI cultures); assay type: cell-based, human; details: 0.1-20 mM denatonium
beta-defensin 2 = experiment: Beta-defensin 2 secretion by sinonasal cultures; assay type: cell-based, human; details: for Effect on beta-defensin secretion: denatonium- or absinthin-stimulated cultures
T2R38 [3] = target: T3, T2R38 (Homo sapiens, UniProt P59533, A49P/I296V); experiment: DAF-FM imaging of NO production in human sinonasal ALI cultures; assay type: cell-based; details: for DAF-FM fluorescence increase: 5 min, PAV/PAV
T3 construct: T2R38 is expressed in human upper airway epithelium; endogenous in cells; host or cells: primary human sinonasal epithelial cells, air-liquid interface cultures from surgical patients
T3 sequence (P59533 1-333 A49P/I296V): T1 sequence (P59533 1-333 A262V) with A49P, V262A, I296V

Pseudomonas aeruginosa [4] = system: Pseudomonas aeruginosa
[5] = system: sinonasal epithelial cells; experiment: DAF-FM NO production with quinine in PAV/AVI heterozygote sinonasal epithelial cells; assay type: cell-based, human
T2R38 [6] = target: T3, T2R38; experiment: Fluo-4 Ca2+ imaging in primary human sinonasal ALI cultures; assay type: cell-based; details: PAV/PAV
T2R38 [7] = experiment: as above; assay type: cell-based; details: PAV/AVI
T2R38 [8] = target: T4, T2R38 (Homo sapiens, UniProt P59533, A262V); experiment: as above; assay type: cell-based; details: AVI/AVI
T4 construct: T2R38 is expressed in human upper airway epithelium; endogenous in cells; host or cells: primary human sinonasal epithelial cells, air-liquid interface cultures from surgical patients
T4 sequence (P59533 1-333 A262V): T1 sequence (P59533 1-333 A262V)

T2R38 [9] = experiment: DAF-FM imaging of NO production in human sinonasal ALI cultures; assay type: cell-based; details: for DAF-FM fluorescence increase: 5 min, PAV/AVI
T2R38 [10] = target: T4, T2R38; experiment: as above; assay type: cell-based; details: 5 min, AVI/AVI
sinonasal ALI cultures [11] = experiment: Mucociliary transport velocity of fluorescent microspheres on sinonasal ALI cultures; assay type: cell-based, human; details: for Concentration required to stimulate a significant increase in mucociliary transport: PAV/PAV cultures
sinonasal ALI cultures [12] = assay type: cell-based, human
[13] = system: acutely dissociated sinonasal ciliated epithelial cells; experiment: Ca2+ and DAF-FM responses in acutely dissociated sinonasal ciliated cells; assay type: cell-based, human
[14] = C4HSL 200 μM, U73122 5 μM, 20 min pre-incubation

Peak Fluo-4 fluorescence (ΔF/F) (AVI-TAS2R38; 1 mM agonist): 3±1%
Peak Fluo-4 fluorescence (ΔF/F) (PAV-TAS2R38; 1 mM agonist): 1±2%
NO production with non-T2R38 bitter ligands (T2R38 [3]; thujone 5 mM, denatonium 10 mM, PAV/PAV cultures): did not stimulate NO production
Compound: CC[N+](CC)(CC(=O)Nc1c(C)cccc1C)Cc1ccccc1 [denatonium, denatonium benzoate]
Growth of bacteria mixed with ASL from stimulated cultures [1]: 0 CFUs
Effect of solutions alone on growth [1]: had no effect
Growth of bacteria mixed with ASL from stimulated cultures (Pseudomonas aeruginosa [2]): 0 CFUs
Effect of solutions alone on growth (Pseudomonas aeruginosa [2]): had no effect
Bactericidal effect of ASL from treated nasal cultures (Kleibsiella pneumoniae): significant bactericidal effects
Fluo-4 fluorescence on stimulation with denatonium (nasal epithelial cells): increases fluo-4 fluorescence
Beta-defensin 2 secretion (beta-defensin 2): induced

Compound: colistin sulfate
% green (viable) PAO1 (Pseudomonas aeruginosa [4]): 4±2%

Compound: C=C[C@H]1C[N@@]2CC[C@H]1C[C@H]2[C@H](O)c1ccnc2ccc(OC)cc12 [quinine]
NO production (increase in DAF-FM fluorescence) ([5]; apical application, PAV/AVI heterozygote cells): stimulated a robust NO production

Compound: CCCCCCCCCC(=O)CC(=O)N[C@H]1CCOC1=O [C12HSL, N-3-oxo-dodecanoyl-L-homoserine lactone]
Peak Fluo-4 fluorescence (ΔF/F) (AVI-TAS2R38; 100 μM): 3±2%
Fluo-4 fluorescence after 10 min C12HSL stimulation (T2R38 [6]; 100 μM C12HSL): 1.52±0.08
Fluo-4 fluorescence after 10 min C12HSL stimulation (T2R38 [7]; 100 μM C12HSL): 1.28±0.04
Fluo-4 fluorescence after 10 min C12HSL stimulation (T2R38 [8]; 100 μM C12HSL): 1.14±0.01
Peak Fluo-4 fluorescence (ΔF/F) (PAV-TAS2R38; 100 μM): 73±5%
DAF-FM fluorescence increase (T2R38 [3]; 10 μM): 235±20
DAF-FM fluorescence increase (T2R38 [3]; 100 μM): 351±65
DAF-FM fluorescence increase (T2R38 [9]; 10 μM): 77±13
DAF-FM fluorescence increase (T2R38 [9]; 100 μM): 109±25
DAF-FM fluorescence increase (T2R38 [10]; 10 μM): 44±9
DAF-FM fluorescence increase (T2R38 [10]; 100 μM): 64±16
Increase in velocity (sinonasal ALI cultures [11]; 0.1 μM, PAV/PAV): 1.09±0.02
Increase in velocity (sinonasal ALI cultures [11]; 1 μM, PAV/PAV): 1.23±0.04
Increase in velocity (sinonasal ALI cultures [11]; 10 μM, PAV/PAV): 1.48±0.04
Increase in velocity (sinonasal ALI cultures [11]; 100 μM, AVI/AVI): 1.14±0.03
Increase in velocity (sinonasal ALI cultures [11]; 100 μM, PAV/PAV): 1.64±0.04
Concentration required to stimulate a significant increase in mucociliary transport (sinonasal ALI cultures [11]): 1 µM
Peak CBF with C12HSL (sinonasal ALI cultures [12]): 1.25±0.05 and 1.03±0.01

Effect on C4HSL-induced NO production in taster cultures (T2R38 [3]; [14]): had no effect on NO production
Compound: COc1ccc2c(c1)CC[C@@H]1[C@@H]2CC[C@]2(C)[C@@H](NCCCCCCN3C(=O)CCC3=O)CC[C@@H]12 [U73343]
Effect on beta-defensin secretion (beta-defensin 2): had no effect

Effect on C4HSL-induced NO production in taster cultures (T2R38 [3]; [14]): blocked
Compound: COc1ccc2c(c1)CC[C@@H]1[C@@H]2CC[C@]2(C)[C@@H](NCCCCCCN3C(=O)C=CC3=O)CC[C@@H]12 [U73122]
Effect on denatonium-induced antimicrobial response (Pseudomonas aeruginosa [2]; U73122 20 μM): inhibited
Effect on beta-defensin secretion (beta-defensin 2): may be blocked

Compound: CCCC(=O)N[C@H]1CCOC1=O [C4HSL, N-butyryl-L-homoserine lactone]
Ca2+ responses in acutely dissociated sinonasal ciliated cells [13]: occurred
Peak Fluo-4 fluorescence (ΔF/F) (AVI-TAS2R38; 200 μM): 0.3±0.4%
Fluo-4 fluorescence after 5 min C4HSL (T2R38 [6]; 200 μM C4HSL): 1.29±0.03
Fluo-4 fluorescence after 5 min C4HSL (T2R38 [7]; 200 μM C4HSL): 1.14±0.04
Fluo-4 fluorescence after 5 min C4HSL (T2R38 [8]; 200 μM C4HSL): 1.10±0.04
Peak Fluo-4 fluorescence (ΔF/F) (PAV-TAS2R38; 200 μM): 61±2%
DAF-FM fluorescence increase (T2R38 [3]; 10 μM): 132±14
DAF-FM fluorescence increase (T2R38 [3]; 100 μM): 230±30
DAF-FM fluorescence increase (T2R38 [9]; 10 μM): 68±6
DAF-FM fluorescence increase (T2R38 [9]; 100 μM): 130±17
DAF-FM fluorescence increase (T2R38 [10]; 10 μM): 50±2
DAF-FM fluorescence increase (T2R38 [10]; 100 μM): 69±8
Increase in velocity (sinonasal ALI cultures [11]; 0.1 μM, PAV/PAV): 1.07±0.02
Increase in velocity (sinonasal ALI cultures [11]; 1 μM, PAV/PAV): 1.12±0.03
Increase in velocity (sinonasal ALI cultures [11]; 10 μM, PAV/PAV): 1.21±0.04
Increase in velocity (sinonasal ALI cultures [11]; 100 μM, AVI/AVI): 1.12±0.03
Increase in velocity (sinonasal ALI cultures [11]; 100 μM, PAV/PAV): 1.47±0.07
Concentration required to stimulate a significant increase in mucociliary transport (sinonasal ALI cultures [11]): 10 µM
Peak CBF with C4HSL (sinonasal ALI cultures [12]): 1.17±0.02 and 1.02±0.02

Compound: CC1=C[C@H]2[C@H]3[C@H](C(C)=C4[C@H]5OC(=O)[C@@H](C)[C@@H]5CC[C@](C)(O)[C@@H]43)[C@@]13[C@@H]2[C@@](C)(O)CC[C@H]1[C@H](C)C(=O)O[C@@H]13 [absinthin]
Growth of bacteria mixed with ASL from stimulated cultures [1]: 0 CFUs
Effect of solutions alone on growth [1]: had no effect
Growth of bacteria mixed with ASL from stimulated cultures (Pseudomonas aeruginosa [2]): 0 CFUs
Effect of solutions alone on growth (Pseudomonas aeruginosa [2]): had no effect
Bactericidal effect of ASL from treated nasal cultures (Kleibsiella pneumoniae): significant bactericidal effects
Beta-defensin 2 secretion (beta-defensin 2): induced

Compound: COC(=O)[C@@H](N)CCCNC(=N)N[N+](=O)[O-] [L-NAME, L-N^G-Nitroarginine methyl ester]
Effect on C4HSL-induced NO production in taster cultures (T2R38 [3]): represses the NO production
Effect on NaSCN-activated DAF-FM fluorescence (T2R38 [9]): blocked
% green (viable) PAO1 (Pseudomonas aeruginosa [4]): 90±2%
Effect on CBF increase in response to 6.25% PAO1 supernatant (sinonasal ALI cultures [12]): significantly inhibited
Effect on HSL-stimulated CBF increase (sinonasal ALI cultures [12]): blocked
Effect on quinine-stimulated NO production ([5]; L-NAME 20 μM): inhibited

Compound: CC1(C)N([O])C(c2ccc(C(=O)O)cc2)=[N+]([O-])C1(C)C [cPTIO]
% green (viable) PAO1 (Pseudomonas aeruginosa [4]): 93±2%
